From US6875760B2 (Novo Nordisk A/S, priority 1999, dated 2005) come the findings set out here.

The structures appear in SMILES notation.

The test concerns the target T1, human glucagon receptor (Homo sapiens, UniProt P47871).
T1 construct: expressed in transfected cells; host or cells: BHK (baby hamster kidney) cells
Put plainly: Glucagon Binding Assay (III). The following applies: BHK cell membranes, WGA SPA beads, 125I-glucagon; read-out: Glu Bd Assay (III) IC50. Summed up: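 Non-specific binding was set with 500 nM glucagon in this SPA-type binding assay using WGA beads. The receptor source was a membrane preparation, kept on ice or at 4 °C, from BHK cells transfected with the human receptor. Scintillation counts were taken after 4 hours of shaking and 8–48 hours of settling.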

T1 sequence (P47871 26-477): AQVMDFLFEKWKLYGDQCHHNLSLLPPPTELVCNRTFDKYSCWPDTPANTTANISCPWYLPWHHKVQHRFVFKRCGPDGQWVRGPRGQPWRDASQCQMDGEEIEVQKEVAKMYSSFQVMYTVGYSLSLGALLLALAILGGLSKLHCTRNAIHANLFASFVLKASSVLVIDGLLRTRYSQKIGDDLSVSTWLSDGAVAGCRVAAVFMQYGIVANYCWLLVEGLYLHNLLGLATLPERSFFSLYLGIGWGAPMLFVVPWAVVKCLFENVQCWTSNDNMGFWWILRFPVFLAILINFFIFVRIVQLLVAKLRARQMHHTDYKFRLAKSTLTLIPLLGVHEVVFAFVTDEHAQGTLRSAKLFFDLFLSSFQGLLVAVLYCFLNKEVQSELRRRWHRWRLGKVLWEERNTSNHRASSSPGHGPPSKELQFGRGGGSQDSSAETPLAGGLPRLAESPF

With `CC(C)(C)C1CCC(N(Cc2ccc(C(=O)NCCC(=O)O)cc2)C(=O)Oc2ccc(Cl)c(Cl)c2)CC1` (stereo not shown) [Example 401, 3-(4-{[(4-tert-Butylcyclohexyl)-(3,4-dichlorophenoxycarbonyl)amino]methyl}benzoylamino)propionic acid], the IC50 (in general, the point on the concentration scale where inhibition reaches its midpoint) was 0.176 µM.
As for `CC(C)(C)C1CCC(N(Cc2ccc(C(=O)NCCC(=O)O)cc2)C(=O)Oc2cc(Cl)cc(Cl)c2)CC1` (stereo not shown) [Example 402, 3-(4-{[(4-tert-Butylcyclohexyl)-(3,5-dichlorophenoxycarbonyl)amino]methyl}benzoylamino)propionic acid], the figure is 0.176 µM; as for `CC(C)(C)C1CCC(N(Cc2ccc(C(=O)NCCC(=O)O)cc2)C(=O)Oc2cc(C(F)(F)F)cc(C(F)(F)F)c2)CC1` (stereo not shown) [Example 403, 3-(4-{[(3,5-Bis(trifluoromethyl)phenoxycarbonyl)-(4-tert-butylcyclohexyl)amino]methyl}benzoylamino)propionic acid], 0.338 µM.
Regarding `CC(C)(C)C1CCC(N(Cc2ccc(C(=O)NCCC(=O)O)cc2)C(=O)Oc2ccc(Br)cc2Br)CC1` (stereo not shown) [Example 404, 3-(4-{[(4-tert-Butylcyclohexyl)-(2,4-dibromophenoxycarbonyl)amino]methyl}benzoylamino)propionic acid], the IC50 turned out to be 0.346 µM.
The value for `CC(C)(C)C1CCC(N(Cc2ccc(C(=O)NCCC(=O)O)cc2)C(=O)Oc2ccc(OC(F)(F)F)cc2)CC1` (stereo not shown) [Example 405, 3-(4-{[(4-tert-Butylcyclohexyl)-(4-trifluoromethoxyphenoxecarbonyl)amino]methyl}benzoylamino)propionic acid] was 0.224 µM.
On to `CC(C)(C)c1ccc(N(Cc2ccc(C(=O)Nc3nn[nH]n3)cc2)C(=O)Oc2cc(C(F)(F)F)cc(C(F)(F)F)c2)cc1` [Example 406], for which the IC50 is 0.751 µM.
Regarding `CC(C)(C)c1ccc(N(Cc2ccc(C(=O)NCCC(=O)O)cc2)C(=O)Oc2ccc(Cl)cc2Cl)cc1` [Example 407, 3-(4-{[(4-tert-Butylphenyl)-(2,4-dichlorophenoxycarbonyl)amino]methyl}benzoylamino)propionic acid], the IC50 is 0.756 µM.
As for `CC(C)(C)C1CCC(N(Cc2ccc(C(=O)NCCC(=O)O)cc2)C(=O)Oc2cccc(OC(F)(F)F)c2)CC1` (stereo not shown) [Example 408, 3-(4-{[(4-tert-Butylcyclohexyl)-(3-trifluoromethoxyphenoxycarbonyl)amino]methyl}benzoylamino)propionic acid], the figure is 0.58 µM.
The value for `CC(C)(C)c1ccc(N(Cc2ccc(C(=O)NCCC(=O)O)cc2)C(=O)Oc2cc(Cl)cc(Cl)c2)cc1` [Example 409, 3-(4-{[(4-tert-Butylphenyl)-(3,5-dichlorophenoxycarbonyl)amino]methyl}benzoylamino)propionic acid] was 0.52 µM.
On to `CC(C)(C)c1ccc(N(Cc2ccc(C(=O)NCCC(=O)O)cc2)C(=O)Oc2cc(C(F)(F)F)cc(C(F)(F)F)c2)cc1` [Example 410, 3-(4-{[(3,5-Bis(trifluoromethyl)phenoxycarbonyl)-(4-tert-butylphenyl)amino]methyl}benzoylamino)propionic acid], for which the IC50 was determined as 0.386 µM.
The value for `CC(C)(C)c1ccc(N(Cc2ccc(C(=O)NCCC(=O)O)cc2)C(=O)Oc2ccc(OC(F)(F)F)cc2)cc1` [Example 411, 3-(4-{[(4-tert-Butylphenyl)-(4-trifluoromethoxyphenoxycarbonyl)amino]methyl}benzoylamino)propionic acid] was 0.704 µM; that for `CC(C)(C)c1ccc(N(Cc2ccc(C(=O)NCCC(=O)O)cc2)C(=O)Oc2cccc(OC(F)(F)F)c2)cc1` [Example 412, 3-(4-{[(4-tert-Butylphenyl)-(3-trifluoromethoxyphenoxycarbonyl)amino]methyl}benzoylamino)propionic acid] was 0.604 µM.
As for `O=C(O)CCNC(=O)c1ccc(CN(C(=O)Oc2ccc([N+](=O)[O-])cc2)c2ccc(C3CCCCC3)cc2)cc1` [Example 413, 3-(4-{[(4-Cyclohexylphenyl)-(4-nitrophenoxycarbonyl)amino]methyl}benzoylamino)propionic acid], the figure is 1.2 µM; as for `O=C(O)CCNC(=O)c1ccc(CN(C(=O)Oc2cccc([N+](=O)[O-])c2)c2ccc(C3CCCCC3)cc2)cc1` [Example 414, 3-(4-{[(4-Cyclohexylphenyl)-(3-nitrophenoxycarbonyl)amino]methyl}benzoylamino)propionic acid], 0.934 µM; as for `O=C(O)CCNC(=O)c1ccc(CN(C(=O)Oc2ccccc2[N+](=O)[O-])c2ccc(C3CCCCC3)cc2)cc1` [Example 415, 3-(4-{[(4-Cyclohexylphenyl)-(2-nitrophenoxycarbonyl)amino]methyl}benzoylamino)propionic acid], 2.42 µM.
The value for `O=C(O)CCNC(=O)c1ccc(CN(C(=O)Oc2ccc(Cl)cc2Cl)c2ccc(C3CCCCC3)cc2)cc1` [Example 416, 3-(4-{[(4-Cyclohexylphenyl)-(2,4-dichlorophenoxycarbonyl)amino]methyl}benzoylamino)propionic acid] was 0.634 µM.
As for `O=C(O)CCNC(=O)c1ccc(CN(C(=O)Oc2ccc(F)c(F)c2)c2ccc(C3CCCCC3)cc2)cc1` [Example 417, 3-(4-{[(4-Cyclohexylphenyl)-(3,4-difluorophenoxycarbonyl)amino]methyl}benzoylamino)propionic acid], the IC50 stood at 0.877 µM.
`CSc1ccc(OC(=O)N(Cc2ccc(C(=O)NCCC(=O)O)cc2)c2ccc(C3CCCCC3)cc2)cc1` [Example 418, 3-(4-{[(4-Cyclohexylphenyl)-(4-methylsulfanylphenoxycarbonyl)amino]methyl}benzoylamino)propionic acid]: the IC50 amounted to 0.472 µM.
As for `O=C(O)CCNC(=O)c1ccc(CN(C(=O)Oc2cc(C(F)(F)F)cc(C(F)(F)F)c2)c2ccc(C3CCCCC3)cc2)cc1` [Example 419, 3-(-4-{[(3,5-Bis(trifluoromethyl)phenoxycarbonyl)-(4-cyclohexylphenyl)amino]methyl}benzoylamino)propionic acid], the figure is 0.482 µM.
As for `O=C(O)CCNC(=O)c1ccc(CN(C(=O)Oc2ccc(Br)cc2Br)c2ccc(C3CCCCC3)cc2)cc1` [Example 420, 3-(4-{[(4-Cyclohexylphenyl)-(2,4-dibromompheoxycarbonyl)amino]methyl}benzoylamino)propionic acid], the figure is 0.729 µM; as for `O=C(O)CCNC(=O)c1ccc(CN(C(=O)Oc2cccc(OC(F)(F)F)c2)c2ccc(C3CCCCC3)cc2)cc1` [Example 421, 3-(4-{[(4-Cyclohexylphenyl)-(3-trifluoromethoxyphenoxycarbonyl)amino]methyl}benzoylamino)propionic acid], 0.528 µM; as for `O=C(O)CCNC(=O)c1ccc(CN(Cc2cc(Cl)cc(Cl)c2)NC(=O)c2ccc(OC(F)(F)F)cc2)cc1` [Example 422, 3-{4-[N-(3,5-Dichlorobenzyl)-N′-(4-trifluoromethoxybenzoyl)hydrazinomethyl]benzoylamino}propionic acid], 0.536 µM.
As for `CCC(C)(C)C1CCC(N(Cc2ccc(C(=O)NCCC(=O)O)cc2)NC(=O)c2ccc(OC(F)(F)F)cc2)CC1` (stereo not shown) [Example 423, 3-{4-[N-[4-(1,1-Dimethylpropyl)cyclohexyl]-N′-(4-trifluoromethoxybenzoyl)hydrazinomethyl]benzoylamino}propionic acid], the figure is 0.037 µM; as for `CC(C)(C)C1CCC(N(Cc2ccc(C(=O)NCCC(=O)O)cc2)NC(=O)c2ccc(OC(F)(F)F)cc2)CC1` (stereo not shown) [Example 424, 3-{4-[N-(4-tert-Butylcyclohexyl)-N′-(4-trifluoromethoxybenzoyl)hydrazinomethyl]benzoylamino}propionic acid], 0.061 µM; as for `O=C(O)CCNC(=O)c1ccc(CN(NC(=O)c2ccc(OC(F)(F)F)cc2)C2C[C@@H]3C[C@H]2C2CCCC23)cc1` (stereo partly shown) [Example 425, 3-{4-[N-(Octahydro-4,7-methanoinden-5-yl)-N′-(4-trifluoromethoxybenzoyl)hydrazinomethyl]benzoylamino}propionic acid], 0.22 µM.
Regarding `O=C(O)CCNC(=O)c1ccc(CN(NC(=O)c2ccc(OC(F)(F)F)cc2)C2CCC(c3ccccc3)CC2)cc1` (stereo not shown) [Example 426, 3-{4-[N-(4-Phenylcyclohexyl)-N′-(4-trifluoromethoxybenzoyl)hydrazinomethyl]benzoylamino}propionic acid], the IC50 amounted to 0.338 µM.
The value for `O=C(O)CCNC(=O)c1ccc(CN(NC(=O)c2ccc(OC(F)(F)F)cc2)C2CCC3CCCCC3C2)cc1` (stereo not shown) [Example 427, 3-{4-[N-(Decahydronaphthalen-2-yl)-N′-(4-trifluoromethoxybenzoyl)hydrazinomethyl]benzoylamino}propionic acid] was 0.512 µM; that for `CC(C)(C)C1CCC(N(Cc2ccc(C(=O)NCCC(=O)O)cc2)NC(=O)c2cc(C(F)(F)F)cc(C(F)(F)F)c2)CC1` (stereo not shown) [Example 428, 3-{4-[N′-(3,5-Bis(trifluoromethyl)benzoyl)-N-(4-tert-butylcyclohexyl)hydrazinomethyl]benzoylamino}propionic acid] was 0.41 µM; that for `CC(C)(C)[C@H]1CC[C@H](N(Cc2ccc(C(=O)NCCC(=O)O)cc2)NC(=O)c2ccc(OC(F)(F)F)cc2)CC1` [Example 429, 3-{4-[N-(trans-4-tert-Butylcyclohexyl)-N′-(4-trifluoromethoxybenzoyl)hydrazinomethyl]benzoylamino}propionic acid] was 0.086 µM.
Take `O=C(O)CCNC(=O)c1ccc(CN(C(=O)Nc2ccc(OC(F)(F)F)cc2)c2ccc(Br)cc2)cc1` [Example 430, 3-{4-[1-(4-Bromophenyl)-3-(4-trifluoromethoxyphenyl)ureidomethyl]benzoylamino}propionic acid]: the IC50 is 1.68 µM.
As for `O=C(O)CCNC(=O)c1ccc(CN(Cc2ccccc2Cl)C(=O)Nc2ccc(OC(F)(F)F)cc2)cc1` [Example 431, 3-{4-[1-(2-Chlorobenzyl)-3-(4-trifluoromethoxyphenyl)ureidomethyl]benzoylamino}propionic acid], the figure is 2.91 µM.
